Values of other authors as cited in US5505931A, “Acid cleavable compounds, their preparation and use as bifunctional acid-labile crosslinking agents” (The Dow Chemical Company, priority 1993, dated 1996).

Test system: tumor
Conditions: unconjugated controls

**Q.** With `COc1cccc2c1C(=O)c1c(O)c3c(c(O)c1C2=O)C[C@@](O)(C(C)=O)C[C@@H]3O[C@H]1C[C@H](N)[C@H](O)[C@H](C)O1` [daunomycin] as the compound, how does the “response in control experiments” value read?
**A.** inferior response
